Assay results: patent publication US6372209B1, “Vaginal lactobacillus medicant” (Gyne Logix, Inc., priority 1997, dated 2002)

How the values were obtained:
[1] = test system: women who had bacterial vaginosis; test: Suppository as treatment for bacterial vaginosis; assay type: in vivo, human
Text: In this study, 13 women who had bacterial vaginosis were given Lactobacillus crispatus CTV-05 suppositories twice daily for seven days. The purpose of this study was to evaluate whether Lactobacillus suppositories could be used as a treatment for bacterial vaginosis. Only 1 of 10 women who returned for follow-up was cured of bacterial vaginosis at the one week follow-up visit.

[2] = test system: Candida albicans ATCC 14053 (human blood isolate); test: Agar overlay zone of inhibition of yeast growth; assay type: cell-based
Method: MRS agar was allowed to harden at a 5 mm slant. Lactobacillus crispatus CTV-05 was streaked across the diameter of the plate and was grown for 24, 48 or 72 hours under both anaerobic and ambient atmospheres. Control strains of Lactobacillus jensenii CTV-01, Lactobacillus crispatus CTV-02, Lactobacillus crispatus CTV-03, and Lactobacillus crispatus CTV-04 were grown in the same way. The plates were overlayed with YM agar with 10 mM CNNaS (sodium thiocyanate, previously reported to be an inhibitor of yeast growth) or without CNNaS. The agar overlays were inoculated with one of two strains of Candida albicans ATCC 60193 (cervical isolate) or Candida albicans ATCC 14053 (human blood isolate). Zones of inhibition were measured. […] Therefore, Lactobacillus crispatus CTV-05 inhibits yeast growth in vitro.

[3] = test system: vaginal epithelial cells (VECs); test: In vitro adherence to vaginal epithelial cells (frozen VECs, McIlvaine's buffer pH 4.5, Gram stain count); assay type: cell-based, human
Method: (1.2) Adherence to vaginal epithelial cells (VECs): Immediately after sampling, vaginal epithelial cells were transferred to MEM tissue culture medium, pH 7.2, washed 3 times in a syringe and passed through a 8μ filter (Millipore) which retains vaginal cells but passes bacteria. A total of 10^5 washed vaginal cells were added to a suspension of 10^9 Lactobacilli/ml (enumerated with a counting chamber) and incubated for 2.5 hours at 37° C. After washing and filtering to remove unattached Lactobacilli, the vaginal cells were stained using Gram stain. The number of Lactobacilli that adhered to the epithelial cells was counted and recorded using a light microscope equipped with a camera. Both the mean number of Lactobacilli cells adhered per VEC (average adherence value) and the percent VEC cohesion value, as described above, were calculated. The percent VEC cohesion value, defined as the percentage of VECs to which at least one Lactobacillus cell is adhered of the total number of VECs in an identified group, was used to determine whether a particular strain would be selected as having a desirable adherence characteristic. Since ongoing adherence studies required a constant supply of vaginal epithelial cells, the vaginal epithelial cells were pre-washed and stored at −70° C. until time of use.
Table 1 and Table 2 show the in vitro adherence studies using frozen VECs from donors representing the most prevalent ABO blood types. […] Strain CTV-05 (Lot LB-022) was preserved in suppository format as described in detail in Example 3. Suppositories were stored at both room (RT) and refrigerator (Ref.) temperatures for 5.5 months prior to testing. It is important to note that the cells of strain CTV-05 used in these studies were not in an actively growing metabolic state. Rather, a suppository containing CTV-05 was placed directly into McIlvaine's buffer (pH 4.5) without pregrowing the microbial cells to an active state. The cells were then directly added to VECs. Results are shown as (1) the logarithmic mean adherence of CTV-05 per 50 VECs (X ±1 standard deviation), (2) as the actual range of adhered CTV-05 per VEC in a total count of 50 VECs, and (3) as the percent VEC cohesion value (% VEC ADH). The description of terms in Table 1 is as follows: ^1X±STD=logarithmic mean adherence of LAB per 50 VEC, +1 standard deviation; ^2 Range=actual range of adhered LAB per VEC in a total count of 50 VECs; ^3% VEC ADH=percent of 50 VECs showing adherence of LAB strain CTV-05, Lot LB-022, stored for 5.5 months at refrigerated (Ref.) and/or room temperature (RT); and *Nursing Mother.
The buffer was then added directly to previously frozen VECs from human donors. Actively growing CTV-05 was also added to previously frozen VECs.

[4] = Active LAB, donor A+, cycle day 3, Gram stain score 4
[5] = Active LAB, donor A+, cycle day 17, Gram stain score 9
[6] = Active LAB, donor A+, cycle day 37, Gram stain score 8
[7] = Active LAB, donor AB+, cycle day 24, Gram stain score 4
[8] = Active LAB, donor A−, cycle day 8 mos., Gram stain score 4
[9] = Active LAB, donor B+, cycle day 13, Gram stain score 9
[10] = Active LAB, donor O+, cycle day 7, Gram stain score 2
[11] = Active LAB, donor O+, cycle day 7, Gram stain score 4
[12] = Active LAB, donor O+, cycle day 15, Gram stain score 2
[13] = Active LAB, donor O+, cycle day 20, Gram stain score 6
[14] = Active LAB, frozen VECs, 10 donors
[15] = Inactive LAB, Agar, donor A+, cycle day 3, Gram stain score 4
[16] = Inactive LAB, Agar, donor A+, cycle day 37, Gram stain score 8
[17] = Inactive LAB, Agar, donor AB+, cycle day 24, Gram stain score 4
[18] = Inactive LAB, Agar, donor B+, cycle day 13, Gram stain score 9

Lactobacillus crispatus CTV-05
women successfully colonized by the suppository strain ([1]; suppositories twice daily for seven days, follow-up): 7 of the 10 | women cured of bacterial vaginosis ([1]; suppositories twice daily for seven days, one week follow-up visit): 1 of 10 | side-effects ([1]; twice daily for seven days): None of the women experienced any side-effects | visual or microscopic evidence of inflammation ([1]; twice daily for seven days): none had either visual or microscopic evidence of inflammation | inhibition of Candida growth ([2]; Lactobacillus grown anaerobically for 24, 48 or 72 hours): effectively inhibited growth | inhibition of Candida growth ([2]; Lactobacillus grown under ambient atmosphere, with or without CNNaS): unable to inhibit | % VEC ADH [3, 4]: 94% | X ± 1 STD (logarithmic mean adherence of LAB per 50 VEC) [3, 4]: 17.7 ± 3.2 | % VEC ADH [3, 5]: 66% | X ± 1 STD (logarithmic mean adherence of LAB per 50 VEC) [3, 5]: 13.0 ± 5.0 | % VEC ADH [3, 6]: 94% | Range (adhered LAB per VEC) [3, 6]: 0-133 LAB per VEC | X ± 1 STD (logarithmic mean adherence of LAB per 50 VEC) [3, 6]: 8.5 ± 3.3 | % VEC ADH [3, 7]: 70% | Range (adhered LAB per VEC) [3, 7]: 0-109 LAB per VEC | X ± 1 STD (logarithmic mean adherence of LAB per 50 VEC) [3, 7]: 5.1 ± 3.4 | % VEC ADH [3, 8]: 96% | X ± 1 STD (logarithmic mean adherence of LAB per 50 VEC) [3, 8]: 52.1 ± 3.6 | % VEC ADH [3, 9]: 68% | Range (adhered LAB per VEC) [3, 9]: 0-61 LAB per VEC | X ± 1 STD (logarithmic mean adherence of LAB per 50 VEC) [3, 9]: 5.7 ± 3.3 | % VEC ADH [3, 10]: 94% | X ± 1 STD (logarithmic mean adherence of LAB per 50 VEC) [3, 10]: 51.9 ± 3.0 | % VEC ADH [3, 11]: 92% | X ± 1 STD (logarithmic mean adherence of LAB per 50 VEC) [3, 11]: 36.3 ± 2.7 | % VEC ADH [3, 12]: 96% | Range (adhered LAB per VEC) [3, 12]: 0-216 LAB per VEC | X ± 1 STD (logarithmic mean adherence of LAB per 50 VEC) [3, 12]: 16.4 ± 4.0 | % VEC ADH [3, 13]: 100% | Range (adhered LAB per VEC) [3, 13]: 1-122 LAB per VEC | X ± 1 STD (logarithmic mean adherence of LAB per 50 VEC) [3, 13]: 14.1 ± 2.3 | Overall Averages # LAB/VEC [3, 14]: 22.1 LAB/VEC | Overall Averages % Adherence [3, 14]: 77.6% | Range (adhered LAB per VEC) [3, 15]: 14-200 LAB per VEC | X ± 1 STD (logarithmic mean adherence of LAB per 50 VEC) [3, 15]: 96.1 ± 2.3 | % VEC ADH [3, 16]: 100% | X ± 1 STD (logarithmic mean adherence of LAB per 50 VEC) [3, 16]: 58.9 ± 2.1 | % VEC ADH [3, 17]: 100% | X ± 1 STD (logarithmic mean adherence of LAB per 50 VEC) [3, 17]: 47.3 ± 2.5 | % VEC ADH [3, 18]: 100% | X ± 1 STD (logarithmic mean adherence of LAB per 50 VEC) [3, 18]: 19.4 ± 3.9
